Results: patent US9302999B2, “Substituted triazoles as herbicides” (E. I. DU PONT DE NEMOURS AND COMPANY, priority 2012, dated 2016)

Legend:
Assay type in all cases: in vivo
[1] = tested on: galium (catchweed bedstraw, Galium aparine); assay: Test C pre-/postemergence: galium
In short: (§1)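 Preemergence on seeds in loam/sand, postemergence on 2–18 cm (1–4-leaf) plants in peat-based medium; compounds in non-phytotoxic solvent with surfactant. After 13–15 days in greenhouse, visual rating versus controls, 0 (no effect) to 100 (complete control).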

[2] = tested on: chickweed (common chickweed, Stellaria media); assay: Test C postemergence: chickweed
In short: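 Pot-grown plants in peat/vermiculite medium sprayed postemergence at 2–18 cm height (1- to 4-leaf stage). Kept in greenhouse 13 to 15 days, then visually rated against untreated controls on a 0–100 scale (0 = no effect, 100 = complete control).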

[3] = tested on: barnyardgrass (Echinochloa crus-galli); assay: Test A pre-/postemergence: barnyardgrass; settings: Postemergence, 0 to 100 scale, 0 is no effect, 100 is complete control
In short: (§2)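 Rating scale 0–100 (100 = complete control), visual, ~10 days after application in the greenhouse. Applications: preemergence directed soil spray; postemergence at 1–2 leaves.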

[4] = tested on: ryegrass, Italian (Italian ryegrass, Lolium multiflorum); assay: Test C pre-/postemergence: ryegrass, Italian
In short: as §1

[5] = tested on: crabgrass, large (large crabgrass, Digitaria sanguinalis); assay: Test A pre-/postemergence: crabgrass, large
In short: as §2

[6] = tested on: morningglory (Ipomoea spp.); assay: Test A pre-/postemergence: morningglory
In short: as §2

[7] = tested on: large crabgrass (Digitaria sanguinalis); assay: Test C pre-/postemergence: large crabgrass
In short: as §1

[8] = tested on: foxtail, giant (giant foxtail, Setaria faberii); assay: Test A pre-/postemergence: foxtail, giant
In short: as §2

[9] = tested on: nutsedge, yellow (yellow nutsedge, Cyperus esculentus); assay: Test C pre-/postemergence: nutsedge, yellow
In short: as §1

[10] = tested on: velvetleaf (Abutilon theophrasti); assay: Test A pre-/postemergence: velvetleaf
In short: as §2

wild oat (Avena fatua) = assay: Test C pre-/postemergence: wild oat; settings: Postemergence
In short: as §1

[11] = Postemergence, 31 g ai/ha, scale 0 to 100 (0 no effect, 100 complete control)
[12] = Postemergence, 62 g ai/ha, scale 0 to 100 (0 no effect, 100 complete control)
[13] = Postemergence, 125 g ai/ha, scale 0 to 100, 0 no effect, 100 complete control
[14] = Postemergence, 250 g ai/ha, scale 0 to 100 (0 no effect, 100 complete control)
[15] = Preemergence, 31 g ai/ha, scale 0 (no effect) to 100 (complete control)
[16] = Preemergence, 62 g ai/ha, scale of 0 to 100, 0 is no effect, 100 is complete control
[17] = Preemergence, 125 g ai/ha, scale 0 to 100, 0 no effect, 100 complete control
[18] = Preemergence, 250 g ai/ha, scale 0 to 100, 0 no effect, 100 complete control
[19] = 31 g ai/ha, scale 0 to 100 (0 no effect, 100 complete control)
[20] = 62 g ai/ha, scale 0 to 100 (0 no effect, 100 complete control)
[21] = 125 g ai/ha, scale 0 to 100, 0 no effect, 100 complete control
[22] = Postemergence, 125 g ai/ha, 0 to 100 scale, 0 is no effect, 100 is complete control
[23] = Postemergence, 500 g ai/ha, 0 to 100 scale, 0 is no effect, 100 is complete control
[24] = Preemergence, 125 g ai/ha, 0 to 100 scale where 0 is no effect and 100 is complete control
[25] = Preemergence, 500 g ai/ha, 0 to 100 scale (0 no effect, 100 complete control)

CCc1nn(-c2ccc(F)c(F)c2)nc1Oc1ccnc(C(F)(F)F)c1 [Compound 171]
Plant response rating, Galium [1, 11]: 70 | Plant response rating, Galium [1, 12]: 75 | Plant response rating, Galium [1, 13]: 80 | Plant response rating, Galium [1, 14]: 80 | Plant response rating, Galium [1, 15]: 5 | Plant response rating, Galium [1, 16]: 98 | Plant response rating, Galium [1, 17]: 98 | Plant response rating, Galium [1, 18]: 100 | Plant response rating, Chickweed [2, 19]: 50 | Plant response rating, Chickweed [2, 20]: 70 | Plant response rating, Chickweed [2, 21]: 95 | Plant response rating, Chickweed ([2]; 250 g ai/ha, scale 0 to 100): 100 | Plant response rating, Barnyardgrass ([3]; 125 g ai/ha): 80 | Barnyardgrass plant response rating ([3]; 500 g ai/ha): 90 | Plant response rating, Ryegrass, Italian [4, 11]: 5 | Plant response rating, Ryegrass, Italian [4, 12]: 5 | Plant response rating, Ryegrass, Italian [4, 13]: 10 | Plant response rating, Ryegrass, Italian [4, 14]: 10 | Plant response rating, Ryegrass, Italian [4, 15]: 10 | Plant response rating, Ryegrass, Italian [4, 16]: 50 | Plant response rating, Ryegrass, Italian [4, 17]: 60 | Plant response rating, Ryegrass, Italian [4, 18]: 100 | Plant response rating, Crabgrass, Large [5, 22]: 90 | Crabgrass, Large plant response rating [5, 23]: 100 | Plant response rating, Crabgrass, Large [5, 24]: 100 | Plant response rating, Crabgrass, Large [5, 25]: 100 | Plant response rating, Morningglory [6, 22]: 100 | Morningglory plant response rating [6, 23]: 100 | Plant response rating, Morningglory [6, 24]: 50 | Plant response rating, Morningglory [6, 25]: 60 | Plant response rating, Crabgrass, Large [7, 11]: 15 | Plant response rating, Crabgrass, Large [7, 12]: 20 | Plant response rating, Crabgrass, Large [7, 13]: 40 | Plant response rating, Crabgrass, Large ([7]; Postemergence, 250 g ai/ha, scale 0 to 100): 55 | Plant response rating, Crabgrass, Large [7, 15]: 85 | Plant response rating, Crabgrass, Large [7, 16]: 100 | Plant response rating, Crabgrass, Large [7, 17]: 100 | Plant response rating, Crabgrass, Large [7, 18]: 100 | Plant response rating, Foxtail, Giant [8, 22]: 80 | Foxtail, Giant plant response rating [8, 23]: 90 | Plant response rating, Foxtail, Giant [8, 24]: 100 | Plant response rating, Foxtail, Giant [8, 25]: 100 | Plant response rating, Nutsedge, Yellow [9, 11]: 5 | Plant response rating, Nutsedge, Yellow [9, 12]: 5 | Plant response rating, Nutsedge, Yellow [9, 13]: 10 | Plant response rating, Nutsedge, Yellow [9, 14]: 10 | Plant response rating, Nutsedge, Yellow [9, 15]: 0 | Plant response rating, Nutsedge, Yellow [9, 16]: 0 | Plant response rating, Nutsedge, Yellow [9, 17]: 0 | Plant response rating, Nutsedge, Yellow [9, 18]: 0 | Plant response rating, Velvetleaf [10, 22]: 70 | Velvetleaf plant response rating [10, 23]: 90 | Plant response rating, Velvetleaf [10, 24]: 60 | Plant response rating, Velvetleaf [10, 25]: 80 | Plant response rating, Oat, Wild (wild oat (Avena fatua); [19]): 5 | Plant response rating, Oat, Wild (wild oat (Avena fatua); [20]): 5 | Plant response rating, Oat, Wild (wild oat (Avena fatua); [21]): 10 | Plant response rating, Oat, Wild (wild oat (Avena fatua); 250 g ai/ha, scale 0 to 100 (0 no effect, 100 complete control)): 20
